# Reference: PubChem BioAssay (NCI)
# “And” between values parts separate entries of the source, which are not always exact repeats. Identical values can stand only once.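 Tested at 5 concentrations; 48 h exposure; 96-well plates; endpoints linearly interpolated, else capped at highest concentration. The concentration for 50% growth inhibition is given as GI50. TGI is the concentration that stops growth completely.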
# Key:
# Assay in all cases: DTP human tumour cell line panel, 48 h
# MALME-3M melanoma = tested on: MALME-3M melanoma
# HCC-2998 colon = tested on: HCC-2998 colon
# OVCAR-5 ovarian = tested on: OVCAR-5 ovarian
# SK-MEL-2 melanoma = tested on: SK-MEL-2 melanoma
# CCRF-CEM leukemia = tested on: CCRF-CEM leukemia
# TK-10 renal = tested on: TK-10 renal
# COLO 205 colon = tested on: COLO 205 colon
# K-562 leukemia = tested on: K-562 leukemia
# U251 CNS = tested on: U251 CNS
# HCT-116 colon = tested on: HCT-116 colon
Structure (SMILES),TGI (MALME-3M melanoma),TGI (HCC-2998 colon),TGI (OVCAR-5 ovarian),TGI (SK-MEL-2 melanoma),TGI (CCRF-CEM leukemia),TGI (TK-10 renal),TGI (COLO 205 colon),TGI (K-562 leukemia),TGI (U251 CNS),TGI (HCT-116 colon),GI50 (MALME-3M melanoma),GI50 (HCC-2998 colon),GI50 (OVCAR-5 ovarian),GI50 (SK-MEL-2 melanoma),GI50 (CCRF-CEM leukemia),GI50 (TK-10 renal),GI50 (COLO 205 colon),GI50 (K-562 leukemia),GI50 (U251 CNS),GI50 (HCT-116 colon)
O=C(Oc1ccccc1)c1cc2cc(CCl)ccc2oc1=O,8.11 µM,47.1 µM,> 100 µM,15.3 µM,> 100 µM,43.8 µM,52.9 µM,> 100 µM,> 100 µM,> 100 µM,,,,,,,,,,
Cc1ccc(/C=C/C(=O)c2c([O-])on[n+]2-c2ccccc2)cc1,98.3 µM,4.15 µM,15.5 µM,5.39 µM,> 100 µM,10.3 µM,7.35 µM,> 100 µM,10.7 µM,3.65 µM,,,,,,,,,,
O=C1c2ccccc2-c2nc(-c3cccnc3)cc3c2c1nc1ccccc13,> 100 µM,> 100 µM,> 100 µM,> 100 µM,> 100 µM,> 100 µM,> 100 µM,> 100 µM,> 100 µM,> 100 µM,,,,,,,,,,
NC(=O)CCC(NCc1c2ccccc2[n+]([O-])c2ccccc12)C(=O)O (stereo not given),> 100 µM,> 100 µM,> 100 µM,> 100 µM,> 100 µM,> 100 µM,> 100 µM,> 100 µM,> 100 µM,> 100 µM,,,,,,,,,,
CC(NS(C)(=O)=O)c1ccccc1 (stereo not given),> 100 µM,> 100 µM,> 100 µM,> 100 µM,> 100 µM,> 100 µM,> 100 µM,> 100 µM,> 100 µM,> 100 µM,,,,,,,,,,
O=C1C2C=CC1C1C(=O)OC(=O)C21 (stereo not given),> 100 µM,> 100 µM,> 100 µM,> 100 µM,> 100 µM,> 100 µM,> 100 µM,> 100 µM,> 100 µM,> 100 µM,,,,,,,,,,
COc1cc(N=NN(C)C)c(C(C)c2c3cc(OC)c(OC)cc3cc[n+]2C)cc1OC (stereo not given),87.5 µM,> 100 µM,> 100 µM,87.5 µM,> 100 µM,97.5 µM,34.4 µM,> 100 µM,> 100 µM,> 100 µM,,,,,,,,,,
NC1C/C(=N\O)c2c(I)sc(I)c21 (stereo not given),30.1 µM,38.5 µM,31.4 µM,35.2 µM,> 100 µM,31.3 µM,40.6 µM,> 74.1 µM,37.4 µM,15.2 µM,,,,,,,,,,
CC(=O)Oc1ccc2c(c1)c1c(=O)oc(N(C)C)nc1n2Cc1ccccc1,> 100 µM,> 100 µM,> 100 µM,> 100 µM,> 100 µM,> 100 µM,> 100 µM,> 100 µM,> 100 µM,> 100 µM,,,,,,,,,,
O=C(O)CSCC(=O)Nc1ccc2cccc3c2c1CC3,> 100 µM,> 100 µM,> 100 µM,> 100 µM,> 100 µM,> 100 µM,> 100 µM,> 100 µM,> 100 µM,> 100 µM,,,,,,,,,,
O=C1OCC(C#Cc2ccccc2)=C1Cl,36.5 µM,15.2 µM,15 µM,40.7 µM,18.1 µM,6.38 µM,7.79 µM,14.6 µM,3.13 µM,1.38 µM,13.4 µM,3.78 µM,3.59 µM,8.61 µM,0.222 µM,1.61 µM,2.33 µM,1.86 µM,1.59 µM,0.322 µM
CC(=O)C1=C(N=[N+]=[N-])c2cccc3cccc(c23)C1=O,33.5 µM,32 µM,54.8 µM,31.4 µM,25.6 µM,36.1 µM,31.7 µM,89.8 µM,66 µM,30.8 µM,,,,,,,,,,
NC1CC(=O)c2csc(Br)c21 (stereo not given),33.9 µM,34.6 µM,29.3 µM,31.3 µM,> 100 µM,27.6 µM,> 51.4 µM,> 82.4 µM,> 60 µM,> 44.2 µM,,,,,,,,,,
C1COC(NC(C2CC2)C2CC2)=N1,> 100 µM,> 100 µM,> 100 µM,> 100 µM,> 100 µM,> 100 µM,> 100 µM,> 100 µM,> 100 µM,> 100 µM,,,,,,,,,,
O=C1OC(c2ccc(O)c(Cl)c2)(c2ccc(O)c(Cl)c2)c2ccc(Br)c3cccc1c23 (tested in a mixture with another compound),39.3 µM,35 µM,34.5 µM,42.1 µM,42.3 µM,37 µM,23.1 µM,46.2 µM,38.2 µM,36.3 µM,,,,,,,,,,
CCCN1C(=O)CCC2=C1CCc1c2ccc(Cl)c1Cl,> 100 µM,49.8 µM,82 µM,41.6 µM,> 100 µM,49.5 µM,> 100 µM,> 100 µM,> 100 µM,> 100 µM,,,,,,,,,,
O=C(CN1CCN(C(=O)OCc2ccccc2)CCN(CC(=O)N2CCCCC2)CCN(C(=O)OCc2ccccc2)CC1)N1CCCCC1,23.5 µM,25.2 µM,48.8 µM,40.2 µM,> 49.8 µM,26.5 µM,27.2 µM,32.7 µM,34.4 µM,18.5 µM,,,,,,,,,,
CC1(c2ccc(Cl)cc2)CC(c2ccc(Cl)cc2)=C(C#N)C(=C(C#N)C#N)N1 (stereo not given),32.3 µM,29.5 µM,61.9 µM,63.4 µM,> 100 µM,32.6 µM,28.7 µM,66.2 µM,29.5 µM,31.7 µM,,,,,,,,,,
O=C(/C=C/c1ccc(O)c(O)c1)OCCc1cccc2ccccc12,19.5 µM,23.4 µM,31.7 µM,10.2 µM,11.2 µM,13.6 µM,20.5 µM,9.08 µM,21.7 µM,14.6 µM,,,,,,,,,,
COc1ccc2c3c1OC1C(=O)C=CC4(O)C(C2)NCC[C@@]314 (stereo not given in full),2.81 µM,6.1 µM,8.84 µM,6.65 µM,2.76 µM,4.99 µM,3.02 µM,> 80.8 µM,7.15 µM,6.32 µM,,,,,,,,,,
OCCN(CCO)c1ccc2c(C(F)(F)F)cc(C(F)(F)F)nc2n1,> 100 µM,> 100 µM,> 100 µM,> 100 µM,> 100 µM,> 100 µM,> 100 µM,> 100 µM,> 100 µM,> 100 µM,,,,,,,,,,
O=C1CCCc2c1c1c(n2Cc2ccccc2)-c2ccccc2C1=O,38.1 µM,30.3 µM,> 100 µM,43 µM,> 100 µM,31.4 µM,42.8 µM,46.6 µM,43.9 µM,31.1 µM,,,,,,,,,,
COC(=O)NCCc1[nH]nc2c1C(=O)C=C(Nc1ccccc1)C2=O,25.5 µM,> 100 µM,> 100 µM,99.4 µM,51.1 µM,> 100 µM,37.5 µM,> 100 µM,42.2 µM,54.9 µM,,,,,,,,,,
CC(C)C(C/C=C1/CC(CO)(COC(=O)CC(C(C)C)C(C)C)OC1=O)C(C)C (stereo not given),23.1 µM,13.3 µM,22.1 µM,30.1 µM,29.9 µM,16.1 µM,3.33 µM,> 36.3 µM,25.3 µM,35.1 µM,,,,,,,,,,
CN1CCC2(CC1)C(=O)N(N1CCCCCC1)C(=O)N2c1ccccc1,> 100 µM,> 100 µM,> 100 µM,> 100 µM,> 100 µM,> 100 µM,> 100 µM,> 100 µM,> 100 µM,> 100 µM,,,,,,,,,,
c1ccc(N=C2SC(=NNc3ccccc3)SC2=Nc2ccccc2)cc1,> 100 µM,> 100 µM,> 100 µM,> 100 µM,> 100 µM,> 100 µM,> 100 µM,> 100 µM,> 100 µM,> 100 µM,,,,,,,,,,
COc1ccc(C2SCC(=O)N2c2ccc(-c3ccc(-n4c(-c5ccccc5)nc5ccccc5c4=O)cc3)cc2)cc1 (stereo not given),> 100 µM,> 100 µM,87.2 µM,86.7 µM,> 100 µM,> 100 µM,> 100 µM,> 100 µM,> 100 µM,> 100 µM,,,,,,,,,,
COc1cc([C@@H]2c3cc4c(cc3[C@@H](NCCNCCO)[C@H]3COC(=O)[C@H]23)OCO4)cc(OC)c1O,24.4 µM and 10.8 µM,32.2 µM and 12.1 µM,51.2 µM and 25.5 µM,> 26.9 µM and 4.89 µM,0.567 µM and 0.695 µM,33.8 µM and 39.3 µM,24 µM and 24.5 µM,> 100 µM,5.35 µM,44 µM and 32.9 µM,2.72 µM and 1.2 µM,3.39 µM and 1.58 µM,14 µM and 5.18 µM,,0.123 µM,,,1.45 µM,,
O=C(Cn1nc(Br)c(Br)c1Br)c1ccccc1,72.4 µM,> 100 µM,> 100 µM,56.7 µM,23 µM,53.1 µM,36.9 µM,28.7 µM,> 100 µM,38.6 µM,,,,,,,,,,
